Read-outs that look alike come from different tables or passages of the source.
Columns and labels:
[1] = Plasma protein binding, rapid equilibrium dialysis (mouse); format: in vitro ADME; details: read-out: plasma binding (mouse) protein binding (converted)
Experimental: (§1) This assay determines the plasma protein binding of a drug or compound and free drug concentration in plasma using rapid equilibrium dialysis. We use the Single-Use RED (rapid equilibrium dialysis, Thermo Scientific) devices to allow the aqueous component of plasma containing the free drug/compound through a dialysis membrane (MWCO ∼ 8000). Sample quantification is determined using a Waters ACQUITY-SOQ UPLC-MS-ELDS-UV system.

[2] = Plasma protein binding, rapid equilibrium dialysis (human); format: in vitro ADME; details: read-out: plasma binding (human) protein binding (converted)
Experimental: as §1

Caco-2 cells = experiment: Caco-2 permeability assay; format: in vitro ADME; details: Caco-2
Experimental: It was performed in the 96-well Transwell system with a modified method.[36] Caco-2 cells were maintained at 37 °C in a humidified incubator with an atmosphere of 5% CO2. The cells were cultured in MEM containing 20% FBS in […], 100 units/mL penicillin, and 100 μg/mL of streptomycin. The Caco-2 cells were seeded onto inserts of a 96-well plate at a density of 0.5 × 10^5 cells/insert and cultured in the MEM containing 20% FBS for 7 days. Each cultured monolayer on the 96-well plate was washed twice with HBSS/HEPES (10 mM, pH 7.4). The permeability assay was initiated by the addition of each compound solution (10 μmol/L) into inserts (apical side, A) or receivers (basolateral side, B). The Caco-2 cell monolayers were incubated for 2 h at 37 °C. Fractions were collected from receivers (if apical to basal permeability) or inserts (if basal to apical permeability), and concentrations were assessed by UPLC/MS (Waters; Milford, MA). All compounds were tested in triplicates. The A → B (or B → A) apparent permeability coefficients ([…]) of each compound were calculated using the equation Pappa = dQ/dt × 1/AC0. The flux of a drug across the monolayer is dQ/dt (μmol/s). The initial drug concentration on the apical side is C0 (μmol/L). The surface area of the monolayer is A (cm^2).

hERG = target: T1, hERG (Homo sapiens, UniProt Q12809); experiment: hERG channel inhibition assay (QPatch HTX, HEK-293); format: cell-based; details: human, HEK-293 cells that express hERG
T1 construct: expressed in transfected cells; host or cells: HEK-293
T1 sequence (Q12809 whole entry): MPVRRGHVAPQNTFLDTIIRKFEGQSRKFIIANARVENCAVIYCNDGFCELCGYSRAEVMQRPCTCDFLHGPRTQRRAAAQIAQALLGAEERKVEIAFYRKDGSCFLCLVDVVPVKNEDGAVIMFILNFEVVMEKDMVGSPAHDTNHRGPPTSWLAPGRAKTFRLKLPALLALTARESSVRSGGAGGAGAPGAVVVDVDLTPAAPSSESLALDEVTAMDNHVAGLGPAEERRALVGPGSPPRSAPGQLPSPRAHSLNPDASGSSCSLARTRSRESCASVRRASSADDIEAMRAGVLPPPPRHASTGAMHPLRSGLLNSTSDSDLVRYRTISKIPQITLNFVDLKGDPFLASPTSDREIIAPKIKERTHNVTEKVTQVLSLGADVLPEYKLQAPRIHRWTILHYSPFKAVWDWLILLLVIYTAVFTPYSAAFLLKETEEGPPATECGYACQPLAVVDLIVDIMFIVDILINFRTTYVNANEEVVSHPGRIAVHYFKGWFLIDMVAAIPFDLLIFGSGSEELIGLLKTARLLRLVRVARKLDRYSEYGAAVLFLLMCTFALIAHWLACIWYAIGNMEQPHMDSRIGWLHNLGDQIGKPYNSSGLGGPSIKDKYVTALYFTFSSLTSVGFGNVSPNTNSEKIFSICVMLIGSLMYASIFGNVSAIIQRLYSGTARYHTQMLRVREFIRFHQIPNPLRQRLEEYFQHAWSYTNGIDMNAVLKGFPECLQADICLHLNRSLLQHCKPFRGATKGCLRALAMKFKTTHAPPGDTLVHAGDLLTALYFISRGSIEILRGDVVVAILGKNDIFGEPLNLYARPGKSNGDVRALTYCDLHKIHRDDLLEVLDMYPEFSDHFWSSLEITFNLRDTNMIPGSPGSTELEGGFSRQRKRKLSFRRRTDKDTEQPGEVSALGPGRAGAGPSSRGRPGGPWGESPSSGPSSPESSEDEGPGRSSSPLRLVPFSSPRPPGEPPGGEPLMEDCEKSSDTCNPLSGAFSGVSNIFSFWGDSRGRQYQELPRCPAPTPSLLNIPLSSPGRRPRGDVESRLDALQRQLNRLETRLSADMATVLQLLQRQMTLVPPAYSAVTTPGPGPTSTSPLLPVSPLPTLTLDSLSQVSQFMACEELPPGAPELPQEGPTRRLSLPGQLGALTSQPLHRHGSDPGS
Experimental: (§2) To assess potential cardiotoxicity, we performed the human ether-go-go-related gene (hERG) inhibition assay. […] Briefly, EP was tested at six concentrations (cumulative concentration–response). […] For hepatotoxicity determination, we performed the microsomal CYP inhibition assay. Briefly, EP was incubated at seven increasing concentrations with pooled human liver microsomes. […] The supernatants were analyzed by LC-MS/MS.

hERG cardiac ion channel = target: T2, hERG cardiac ion channel (Homo sapiens, UniProt Q12809); experiment: as above; format: cell-based; details: hERG tail-current; read-out: hERG pIC50 (converted)
T2 construct: expressed in transfected cells; host or cells: HEK-293
T2 sequence (Q12809 whole entry): as above
Experimental: as §2

CYP2C9 = target: T3, CYP2C9 (Homo sapiens, UniProt P11712); experiment: Microsomal CYP inhibition assay, CYP2C9; format: in vitro ADME
T3 construct: from tissue; host or cells: pooled human liver microsomes
T3 sequence (P11712 whole entry): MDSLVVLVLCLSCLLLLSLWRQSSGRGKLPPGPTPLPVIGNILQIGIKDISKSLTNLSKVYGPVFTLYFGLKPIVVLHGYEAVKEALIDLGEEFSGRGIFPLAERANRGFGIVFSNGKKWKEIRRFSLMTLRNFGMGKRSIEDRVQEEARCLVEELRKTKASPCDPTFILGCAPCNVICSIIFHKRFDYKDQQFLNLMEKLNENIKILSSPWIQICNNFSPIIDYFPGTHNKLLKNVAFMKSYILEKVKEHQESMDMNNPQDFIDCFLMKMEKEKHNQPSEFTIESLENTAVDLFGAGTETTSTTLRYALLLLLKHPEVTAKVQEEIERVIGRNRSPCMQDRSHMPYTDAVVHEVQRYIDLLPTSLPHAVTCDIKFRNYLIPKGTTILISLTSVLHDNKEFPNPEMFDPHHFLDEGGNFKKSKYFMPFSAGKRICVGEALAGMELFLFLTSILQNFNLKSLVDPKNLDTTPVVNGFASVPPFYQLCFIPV
Experimental: as §2

CYP2D6 = CYP2D6 (Homo sapiens, UniProt P10635); experiment: Microsomal CYP inhibition assay, CYP2D6; format: in vitro ADME; details: pooled human liver microsomes, probe dextromethorphan
CYP2D6, sequence (P10635 whole entry): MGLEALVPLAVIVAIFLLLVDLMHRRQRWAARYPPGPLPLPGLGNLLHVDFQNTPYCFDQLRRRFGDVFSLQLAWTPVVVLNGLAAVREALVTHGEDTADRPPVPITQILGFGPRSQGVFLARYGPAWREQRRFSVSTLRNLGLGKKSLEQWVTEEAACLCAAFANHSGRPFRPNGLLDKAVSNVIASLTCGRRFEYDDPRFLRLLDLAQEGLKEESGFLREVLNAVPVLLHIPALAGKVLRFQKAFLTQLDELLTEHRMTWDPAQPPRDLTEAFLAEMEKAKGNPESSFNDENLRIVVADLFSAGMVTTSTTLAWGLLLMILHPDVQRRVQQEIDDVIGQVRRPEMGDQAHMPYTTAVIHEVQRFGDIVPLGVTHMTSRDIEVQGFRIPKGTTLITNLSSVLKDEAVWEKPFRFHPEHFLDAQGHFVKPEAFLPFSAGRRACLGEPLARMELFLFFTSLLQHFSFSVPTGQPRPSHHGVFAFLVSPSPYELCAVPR
Experimental: as §2

CYP1A2 = target: T4, CYP1A2 (Homo sapiens, UniProt P05177); experiment: Microsomal CYP inhibition assay, CYP1A2; format: in vitro ADME; details: pooled human liver microsomes, probe tacrine
T4 construct: from tissue; host or cells: pooled human liver microsomes
T4 sequence (P05177 1-516): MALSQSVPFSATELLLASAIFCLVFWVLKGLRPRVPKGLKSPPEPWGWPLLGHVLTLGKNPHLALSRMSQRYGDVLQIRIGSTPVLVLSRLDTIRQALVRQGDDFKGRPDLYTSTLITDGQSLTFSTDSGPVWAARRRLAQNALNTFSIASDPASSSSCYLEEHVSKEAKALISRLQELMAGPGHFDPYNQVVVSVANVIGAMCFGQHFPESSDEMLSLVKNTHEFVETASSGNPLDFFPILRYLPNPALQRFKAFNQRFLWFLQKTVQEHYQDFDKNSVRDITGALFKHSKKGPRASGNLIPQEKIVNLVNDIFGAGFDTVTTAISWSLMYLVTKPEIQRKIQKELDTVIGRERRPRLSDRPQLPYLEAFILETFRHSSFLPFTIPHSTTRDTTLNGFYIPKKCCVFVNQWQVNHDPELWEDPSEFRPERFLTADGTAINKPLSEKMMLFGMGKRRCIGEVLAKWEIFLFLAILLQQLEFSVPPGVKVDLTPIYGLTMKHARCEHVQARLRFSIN
Experimental: as §2

CYP2B6 = target: T5, CYP2B6 (Homo sapiens, UniProt P20813); experiment: Microsomal CYP inhibition assay, CYP2B6; format: in vitro ADME; details: pooled human liver microsomes, probe bupropion
T5 construct: from tissue; host or cells: pooled human liver microsomes
T5 sequence (P20813 1-491): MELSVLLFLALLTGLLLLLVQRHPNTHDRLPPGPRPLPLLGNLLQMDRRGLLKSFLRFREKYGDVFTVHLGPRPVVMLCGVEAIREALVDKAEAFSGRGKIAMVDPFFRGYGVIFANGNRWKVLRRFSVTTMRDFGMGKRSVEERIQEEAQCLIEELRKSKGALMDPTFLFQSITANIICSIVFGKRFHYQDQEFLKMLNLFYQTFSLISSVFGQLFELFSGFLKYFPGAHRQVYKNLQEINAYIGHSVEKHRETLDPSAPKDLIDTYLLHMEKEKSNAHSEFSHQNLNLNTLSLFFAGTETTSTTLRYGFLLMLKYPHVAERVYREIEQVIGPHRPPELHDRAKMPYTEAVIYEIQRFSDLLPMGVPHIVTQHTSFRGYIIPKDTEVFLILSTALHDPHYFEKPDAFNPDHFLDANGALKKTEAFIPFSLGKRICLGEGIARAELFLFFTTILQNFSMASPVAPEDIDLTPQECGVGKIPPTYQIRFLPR
Experimental: as §2

CYP2C19 = target: T6, CYP2C19 (Homo sapiens, UniProt P33261); experiment: Microsomal CYP inhibition assay, CYP2C19; format: in vitro ADME; details: pooled human liver microsomes, probe mephenytoin; read-out: CYP-2C19 inhibition
T6 construct: from tissue; host or cells: pooled human liver microsomes
T6 sequence (P33261 whole entry): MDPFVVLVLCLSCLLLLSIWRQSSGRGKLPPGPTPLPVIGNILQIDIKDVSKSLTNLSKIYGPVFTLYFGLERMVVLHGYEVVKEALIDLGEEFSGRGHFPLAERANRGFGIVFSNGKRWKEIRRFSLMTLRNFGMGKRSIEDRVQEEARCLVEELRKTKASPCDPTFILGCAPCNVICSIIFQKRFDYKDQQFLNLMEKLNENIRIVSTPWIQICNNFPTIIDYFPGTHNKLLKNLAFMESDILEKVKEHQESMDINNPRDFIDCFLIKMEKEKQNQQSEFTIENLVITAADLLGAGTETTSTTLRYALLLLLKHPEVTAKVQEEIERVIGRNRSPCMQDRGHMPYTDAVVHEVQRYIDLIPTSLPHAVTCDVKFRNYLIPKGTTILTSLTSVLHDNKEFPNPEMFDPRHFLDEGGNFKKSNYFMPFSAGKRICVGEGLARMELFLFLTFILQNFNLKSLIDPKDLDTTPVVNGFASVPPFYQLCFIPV
Experimental: as §2

[3] = Plasma stability assay (mouse)
Experimental: (§3) Briefly, pooled blood from 3 animals for experiment (male Balb/c 6–8w from the division of laboratory animal medicine in-house breeding colony) was collected, and the heparinized plasma was prepared. Plasma and test compounds were added to individual wells of a 96-well microtiter plate. Compounds were incubated at 37 °C for the provided time points. All tests were performed in triplicates. The test compound was incubated with plasma at six different time points. The reaction was terminated by methanol containing an internal standard. After centrifugation, the concentration of the test compound in the supernatant was quantified by LC-MS/MS.
(§4) Plasma stability assay: Briefly, pooled blood from 3 animals for experiment (male Balb/c 6-8w
(§5) from the division of laboratory animal medicine in-house breeding colony) was collected, and
(§6) the heparinized plasma was prepared. Plasma and test compounds were added to the individual
(§7) wells of a 96-well microtiter plate. Compounds were incubated at 37°C for the provided time
(§8) points. All tests were performed in triplicates. Then, the test compound was incubated with
(§9) plasma at six different time points. The reaction was terminated by the addition of methanol
(§10) containing an internal standard. After centrifugation, the concentration of the test compound in
(§11) the supernatant was quantified by LC-MS/MS. The percentage of test compound remaining at
(§12) compounds are known to be metabolized by plasma esterases,1 and were also incubated with
each batch of test compound.
(§13) A standard protocol and MS method was used for the plasma stability experiment. The extraction
(§14) procedure for plasma/tissue samples and the spiked plasma/tissue calibration standards were
(§15) identical: A 25 µL of study sample or spiked plasma/tissue calibration standard was added to
(§16) individual pre-labeled micro-centrifuge tubes followed by 100 µL of internal standard prepared
(§17) in Acetonitrile (Albendazole, 500 ng/mL) was added except for blank, where 100 µL of
(§18) Acetonitrile was added. Samples were vortexed for 5 minutes. Samples were centrifuged for 5
(§19) minutes at a speed of 4000 rpm at 4°C. Following centrifugation, 100 µL of clear supernatant
(§20) was transferred in 96 well plates and analyzed using LC-MS/MS mode. The LC system
(§21) comprises of a binary pump that can mix two mobile phases: A = Water+0.1% formic acid; B =
(§22) acetonitrile +0.1%formic acid. The system was operated in gradient mode using a 6 minute
(§23) min, 10-90% A to B in 5.5-6 min, and then hold at this gradient, using a Phenomenex Luna, 150
(§24) X 4.6 mm, 5 µm column. Source Parameter: positive, Ion Spray Voltage 5500, Temperature
550C, interface heater on.

[4] = Plasma stability assay (human)
[5] = Balb/c, mouse and human
Experimental: as §3, §4, §5, §6, §7, §8, §9, §10, §11, §12
each batch of test compound.
as §13, §14, §15, §16, §17, §18, §19, §20, §21, §22, §23, §24
550C, interface heater on.

CC(C)[C@@H](C)/C=C/[C@@H](C)[C@H]1CC[C@@H]2[C@]1(C)CC[C@H]1[C@]23C=C[C@]2(C[C@@H](O)CC[C@]12C)OO3 [Compound 2, Ergosterol peroxide]
fraction unbound [1]: 0.14
fraction unbound [2]: 0.28
efflux ratio (B2A/A2B) (Caco-2 cells): 0.93
inhibition at 0.1 µM (hERG; 0.1 μM, first addition): 1.99%
inhibition at 0.3 µM (hERG; 0.3 μM, second addition): 2.99%
inhibition at 1 µM (hERG; 1 μM, 3rd addition): 3.04%
inhibition at 3 µM (hERG; 3 μM, fourth addition): 6.21%
inhibition at 10 µM (hERG; 10 μM, fifth addition): 10.1%
inhibition at 30 µM (hERG; 30 μM, sixth addition): 18.7%
IC50 (hERG cardiac ion channel): > 30.2 µM
IC50 (CYP2C9): > 25 µM
IC50 (CYP2D6): > 25 µM
IC50 (CYP1A2): 16.3 µM
IC50 (CYP2B6): > 25 µM
IC50 (CYP2C19): 19.9 µM
half-life ([3]; male, Balb/c, mouse, plasma): > 48 h
plasma stability ([3]; species not specified): > 48 h
half-life [4]: > 48 h

CC(C)[C@@H](C)/C=C/[C@@H](C)[C@H]1CC[C@@H]2[C@]1(C)CC[C@H]1[C@]23C=C[C@]2(CC(=O)CC[C@]12C)OO3 [Compound 3]
plasma stability [5]: > 48 h
